# Measured values published in US20160067162A1, “PHOTOPROTECTIVE COMPOUNDS, COMPOSITIONS INCLUDING SAME AND USES THEREOF” (UNIVERSITE DE RENNES 1, priority 2013, published 2016).
# What was measured:
# Type in all cases: physicochemical
# [1] = SPF measurement, Protocol II (Nantes): O/W emulsion on PMMA plate, transmission with integrating sphere
# Procedure: The SPF measurement is carried out according to the protocol described in Lohézic-Le Dévéhat F., Legouin B., Couteau C., Boustie J., Coiffard L. “Lichenic extracts and metabolites as UV filters” Journal of Photochemistry and Photobiology B: Biology 120 (2013) 17-28:
# An emulsion having the following formulation is used: […]
# The two phases are prepared separately. The hydrophilic phase is then added, with stirring, to the lipophilic phase. The products are finally incorporated at 1% into this O/W emulsion. 30 mg of the whole mixture are distributed over the entire surface area (25 cm^2) of a PMMA plate using a finger store. After spreading, 15 mg remain on the finger store. Three plates are prepared per product and nine measurements are carried out. The transmission measurements between 290 and 400 nm for the SPF and between 320 and 400 nm for the UVA-PF are carried out using a spectrophotometer equipped with an integrating sphere (UV Transmittance analyzer UV1000S, Labsphere, North Sutton, US).
# (§1) The SPF and UVA-PF values are, for the two protocols, calculated from the following equations: […]
# (§2) where Eλ is the erythemogenic effect of the radiation at the wavelength λ; Sλ is the spectral solar irradiance at the wavelength λ and Tλ is the spectral transmittance of the product at the wavelength λ, λc is the critical wavelength which corresponds to the wavelength at which 90% of the area under the curve (AUC) is integrated between 290 and 400 nm. The UVA/UVB ratio corresponds more specifically to the ratio of the area under the curve between 315 and 400 nm to the area under the curve between 280 and 315 nm.
# [2] = SPF measurement, Protocol I (Rennes): simplified O/W emulsion, UV spectrum 200-400 nm
# Procedure: The SPF measurement is carried out according to the following protocol described in Le Dévéhat F., Malargé A., Couteau C., Coiffard L., Legouin B. “Evaluation of a new UV-filter screening method”, 4th symposium of the AFERP “Biodiversity, chimie des substances naturelles et medicaments” [“Biodiversity, chemistry of natural substances and medicaments”] and 3rd Franco-Pakistani symposium, Besançon (France), Jul. 16-17-18, 2010. A solution of each product dissolved in dimethyl sulfoxide is incorporated at 10% into a simplified emulsion of oil-in-water (O/W) type consisting of liquid paraffin, water and SDS at 10%, the whole mixture taken up in absolute ethanol. The UV spectrum of each solution is recorded between 200 nm and 400 nm in a 10 mm quartz cell on a Uvikon 931 UV-vis spectrophotometer and measured in comparison with a control 10% emulsion solution.
# as §1, §2
# [3] = UV spectrum measurement in CHCl3 (λmax, molar extinction coefficient)
# Procedure: The products are diluted in CHCl3 so as to obtain a solution at 10^−4M. The UV spectra are measured using a Uvikon 931 UV-vis spectrophotometer, Serlabo Technologies, Entraigues sur la Sorgue, France. This UV spectrum makes it possible to determine the molar extinction coefficient (mol^−1 L cm^−1) at the λmax by virtue of the Beer-Lambert law: c=A/l×C;
# A=value of the absorbance at the λmax; l=length of the cuvette in cm (l=1);
# C=concentration of the solution=1×10^−4 mol/l. The theoretical λmax was determined for certain products by DFT calculation.
structure (smiles),measurement,setting,value
"CCCC1=CC(=O)CCN1 [Compound 5, 6-propyl-2,3-dihydropyridin-4(1H)-one]",λc (p.II),[1]; critical wavelength,335 nm
same,"SPF (p.II, at 1%)","[1]; product at 1% in O/W emulsion, PMMA plate, 290-400 nm",11.18 ± 1.03
same,"Colipa UVA-PF (p.II, at 1%)","[1]; product at 1%, 320-400 nm",2.58 ± 0.07
same,λc p.I,"[2]; critical wavelength, protocol I",328 nm
same,"Colipa UVA-PF p.I, at 10%","[2]; protocol I, product at 10%",1.66 ± 0.003
same,"SPF p.I, at 10%","[2]; protocol I, product at 10% in simplified O/W emulsion",12.17 ± 0.09
same,UVA/UVB,[2]; ratio of area under the curve 315-400 nm to 280-315 nm,0.36 ± 0.00
same,λmax exp,[3]; 10^−4 M in CHCl3,303 nm
same,ε (molar extinction coefficient at the λmax),"[3]; 10^−4 M in CHCl3, 1 cm cuvette",12361 L/mol/cm
